According to patent publication US20240209028A1, “CNP COMPOUNDS” (priority 2022, published 2024):
Starred links: 1 amine or outer side, 2 acyl side, 3 side chain; linkers in the order of their positions; H or OH if unused. Positions of bridges follow the written chain, without caps; N, C: chain ends. Residues, ends and D or L forms follow the SMILES beside them. *: point of attachment. C18 diacid = O=C(O)CCCCCCCCCCCCCCCCC(=O)*; γGlu = O=C(O)[C@H](CCC(=O)[*:2])N[*:1]; AEEA = NCCOCCOCC(=O)O

Molecular target: T1, human natriuretic peptide receptor 2 (hNPR2) (Homo sapiens, UniProt P20594)
T1 construct: expressed in transfected cells; host or cells: HEK293 (ATCC CRL-1573), clone 35, co-transfected with pGloSensor-42F
T1 sequence (P20594 23-1047): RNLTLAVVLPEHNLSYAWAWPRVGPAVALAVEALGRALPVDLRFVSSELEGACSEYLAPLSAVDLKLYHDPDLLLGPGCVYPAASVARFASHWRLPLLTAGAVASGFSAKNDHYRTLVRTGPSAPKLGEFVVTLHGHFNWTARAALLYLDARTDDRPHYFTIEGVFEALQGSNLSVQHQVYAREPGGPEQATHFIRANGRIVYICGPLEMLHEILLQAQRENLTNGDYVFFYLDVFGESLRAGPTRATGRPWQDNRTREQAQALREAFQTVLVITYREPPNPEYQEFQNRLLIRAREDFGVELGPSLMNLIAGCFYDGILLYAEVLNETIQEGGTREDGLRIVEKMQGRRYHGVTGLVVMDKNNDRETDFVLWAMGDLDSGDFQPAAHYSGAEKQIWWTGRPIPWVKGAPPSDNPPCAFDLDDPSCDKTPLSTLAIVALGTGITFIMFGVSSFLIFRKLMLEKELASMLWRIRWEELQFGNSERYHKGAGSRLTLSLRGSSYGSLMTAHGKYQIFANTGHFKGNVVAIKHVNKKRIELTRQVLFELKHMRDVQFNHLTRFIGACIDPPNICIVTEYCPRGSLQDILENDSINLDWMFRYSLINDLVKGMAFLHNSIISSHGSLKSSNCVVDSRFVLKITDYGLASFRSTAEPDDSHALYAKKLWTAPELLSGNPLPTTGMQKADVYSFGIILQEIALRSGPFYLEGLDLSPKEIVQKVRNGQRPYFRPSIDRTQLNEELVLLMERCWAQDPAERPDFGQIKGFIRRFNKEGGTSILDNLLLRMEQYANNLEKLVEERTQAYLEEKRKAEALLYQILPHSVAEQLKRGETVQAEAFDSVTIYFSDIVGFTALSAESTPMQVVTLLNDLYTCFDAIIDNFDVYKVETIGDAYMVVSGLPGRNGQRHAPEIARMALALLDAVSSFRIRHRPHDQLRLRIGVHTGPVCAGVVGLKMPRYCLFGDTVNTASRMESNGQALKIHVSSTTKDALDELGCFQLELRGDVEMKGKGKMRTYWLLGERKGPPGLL
Assay: In vitro hNPR2 activity assay (cGMP GloSensor reporter, HEK293)
Format: cell-based
Conditions: for hNPR2 0% HSA. [EC50% rel CNP]: potency relative to CNP22 (0065)
Summary of the method: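 Potency is the EC50 from a four-parameter logistic fit, also expressed relative to the in-plate CNP22 control (×100), with at least two replicates. Compounds (ten concentrations, […], HSA-free diluent with 1% OVA, 0.01% Tween20) were incubated 30 min at 37 °C on HEK293 cells co-expressing hNPR2 and a GloSensor cGMP luciferase. Luminescence detected with Bright-Glo.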

SMILES | hNPR2 0% HSA. [EC50% rel CNP] [%] | EC50 (0% HSA, HEK293-hNPR2/GloSensor cells) [nM]
CC[C@H](C)[C@@H]1NC(=O)[C@H](CCCNC(=N)N)NC(=O)[C@H](CC(=O)O)NC(=O)[C@H](CC(C)C)NC(=O)[C@@H]2CCCN2C(=O)[C@H](CC(C)C)NC(=O)CNC(=O)[C@H](Cc2ccccc2)NC(=O)[C@@H](NC(=O)CNC(=O)[C@H](CCC(N)=O)NC(=O)[C@H](CO)NC(=O)[C@H](CC(C)C)NC(=O)CNC(=O)[C@H](CCCCN)NC(=O)[C@H](CCCCN)NC(=O)[C@H](CCC(N)=O)NC(=O)[C@H](C)NC(=O)CNC(=O)[C@@H]2CCCN2C(=O)[C@H](C)NC(=O)[C@H](CCC(N)=O)NC(=O)CNC(=O)[C@@H]2CCCN2C(=O)[C@H](C)NC(=O)[C@H](CCC(N)=O)NC(=O)CNC(=O)[C@@H]2CCCN2C(=O)[C@H](C)NC(=O)[C@H](CCC(N)=O)NC(=O)CNC(=O)COCCOCCNC(=O)COCCOCCNC(=O)CC[C@H](NC(=O)CCCCCCCCCCCCCCCCC(=O)O)C(=O)O)CSSC[C@@H](C(=O)O)NC(=O)CNC(=O)[C@H](CC(C)C)NC(=O)CNC(=O)[C@H](CO)NC(=O)[C@H](CC(C)C)NC(=O)[C@H](CO)NC(=O)CNC1=O [compound 1487] ({C18 diacid-γGlu-AEEA-AEEA}-GQAPGQAPGQAPGAQKKGLSQGCFGLPLDRIGSLSGLGC-OH; disulfide 23-39) | 22.0 | 
CC[C@H](C)[C@@H]1NC(=O)[C@H](CCCNC(=N)N)NC(=O)[C@H](CC(=O)O)NC(=O)[C@H](CC(C)C)NC(=O)[C@@H]2CCCN2C(=O)[C@H](CC(C)C)NC(=O)CNC(=O)[C@H](Cc2ccccc2)NC(=O)[C@@H](NC(=O)CNC(=O)[C@H](CCC(N)=O)NC(=O)[C@H](CO)NC(=O)[C@H](CC(C)C)NC(=O)CNC(=O)[C@H](CCCCN)NC(=O)[C@H](CCCCN)NC(=O)[C@H](CCC(N)=O)NC(=O)[C@H](C)NC(=O)CNC(=O)[C@@H]2CCCN2C(=O)[C@H](C)NC(=O)[C@H](CCC(N)=O)NC(=O)CNC(=O)[C@@H]2CCCN2C(=O)[C@H](C)NC(=O)[C@H](CCC(N)=O)NC(=O)CNC(=O)[C@@H]2CCCN2C(=O)[C@H](C)NC(=O)[C@H](CCC(N)=O)NC(=O)CNC(=O)CC[C@H](NC(=O)CCCCCCCCCCCCCCCCC(=O)O)C(=O)O)CSSC[C@@H](C(=O)O)NC(=O)CNC(=O)[C@H](CC(C)C)NC(=O)CNC(=O)[C@H](CO)NC(=O)[C@H](CC(C)C)NC(=O)[C@H](CO)NC(=O)CNC1=O [compound 1488] ({C18 diacid-γGlu}-GQAPGQAPGQAPGAQKKGLSQGCFGLPLDRIGSLSGLGC-OH; disulfide 23-39) | 29.3 | 
CC[C@H](C)[C@@H]1NC(=O)[C@H](CCCNC(=N)N)NC(=O)[C@H](CCC(=O)O)NC(=O)[C@H](CC(C)C)NC(=O)[C@@H]2CCCN2C(=O)[C@H](CC(C)C)NC(=O)CNC(=O)[C@H](Cc2ccccc2)NC(=O)[C@@H](NC(=O)CNC(=O)[C@H](CCC(N)=O)NC(=O)[C@H](CO)NC(=O)[C@H](CC(C)C)NC(=O)CNC(=O)[C@H](CCCCN)NC(=O)[C@H](CCCCN)NC(=O)[C@H](CCC(N)=O)NC(=O)[C@H](C)NC(=O)CNC(=O)[C@H](CCCCN)NC(=O)[C@H](Cc2ccc(O)cc2)NC(=O)COCCOCCNC(=O)COCCOCCNC(=O)COCCOCCNC(=O)COCCOCCNC(=O)CC[C@H](NC(=O)CC[C@H](NC(=O)CCCCCCCCCCCCCCCCC(=O)O)C(=O)O)C(=O)O)CSSC[C@@H](C(=O)O)NC(=O)CNC(=O)[C@H](CC(C)C)NC(=O)CNC(=O)[C@H](CO)NC(=O)[C@H](CC(C)C)NC(=O)[C@H](CO)NC(=O)CNC1=O [compound 1493] ({C18 diacid-γGlu-γGlu-AEEA-AEEA-AEEA-AEEA}-YKGAQKKGLSQGCFGLPLERIGSLSGLGC-OH; disulfide 13-29; C-terminus assumed) | 11.5 | 0.8
